From paper PMC9569450, “Dual Effect of Tryptamine on Prostate Cancer Cell Growth Regulation: A Pilot Study” (International Journal of Molecular Sciences, 2022)
Read-outs that look alike come from different tables or passages of the source.

Key:
[1] = tested on: LNCaP cells; assay: MTT cell proliferation assay, LNCaP; format: cell-based; conditions: 48 h treatment in FBS-free medium, read-out: IC50 Value (Mean ± SD mM) LNCaP
Experimental: (§1) PC-3, LNCaP, RWPE-1, HepG2, A549, and PANC-1 cells were purchased from the National Collection of Authenticated Cell Cultures (Shanghai, China). […] All the above cell cultures were supplied with 10% fetal bovine serum and 1% penicillin-streptomycin. RWPE-1 cells were cultured in keratinocyte serum-free medium (K-SFM, Gibco, New York, NY, USA) supplemented with 50 mg/L bovine pituitary extract and 5 μg/L epidermal growth factor (EGF). All cell lines were grown in a humidified atmosphere of 5% CO2 at 37 °C.
(§2) Cells were seeded in 100 μL complete medium in a 96-well plate, at a density of 10,000 cells/well for LNCaP and 5000 cells/well for other cells. Cells were pre-incubated for 24 h to allow for adherence before removal of complete medium and treatment with various concentrations of compounds in fetal bovine serum (FBS)-free medium for 48 h. After treatment, 20 μL/well MTT (5 mg/mL) was added and incubated for 3–4 h at 37 °C, and then 100 μL/well DMSO was added for MTT assay. The plate was shaken on an orbital shaker for 10 min. Absorbance was measured using a microplate reader at 492 nm for the MTT assay (performed in triplicates). Cell viability was normalized to control. Half inhibitory concentration (IC50) was calculated by SPSS Statistics 17.0. […] The experiments were independently repeated two to three times.

[2] = tested on: PANC-1 cells; assay: MTT cell proliferation assay, PANC-1; format: cell-based; conditions: read-out: IC50 Value (Mean ± SD mM) PANC-1
Experimental: as §1, §2

[3] = tested on: PC-3 xenograft tumors; assay: PC-3 xenograft mouse model; format: in vivo; conditions: 200 mg/kg
Experimental: Five-week-old male BALB/c nude mice were purchased from Charles River Laboratories (Beijing, China) and raised in a temperature and humidity-controlled environment (25 ± 2 °C, 50% ± 10% humidity) with a standard 12 h light-dark cycle with food and water in cages under germ-free conditions (SCXK2021-0006). All procedures involving animals and their care were approved by the Institutional Animal Care and Use Committee of the Ocean University of China in accordance with institutional and National Institutes of Health guidelines (OUC-SMP-2022-01-01). PC-3 cells (4 × 10^6 dissolved in 150 μL PBS) were injected subcutaneously into the armpit area of each mouse. For the first treatment group, when tumors reached 50 mm^3, 80 mg/kg of tryptamine dissolved in normal saline with 0.1% formic acid was administered intraperitoneally once every other day for 32 days (n = 6). […] The control groups were administrated with the vehicle. The tumor volume (mm^3) was calculated based on the formula:(2) Tumor volume (mm^3)=length×width^2/2

[4] = tested on: PC-3, LNCaP, RWPE-1, A549, PANC-1, and HepG2 cells; assay: MTT cell proliferation assay, all cell lines; format: cell-based
Experimental: (§3) PC-3, LNCaP, RWPE-1, HepG2, A549, and PANC-1 cells were purchased from the National Collection of Authenticated Cell Cultures (Shanghai, China). PC-3 and A549 cells were cultured in F-12K Nutrient Mixture (Gibco, New York, NY, USA), LNCaP in RPMI 1640 (Gibco, New York, NY, USA), PANC-1 in Dulbecco’s Modified Eagle Medium (DMEM, Gibco, New York, NY, USA), and HepG2 in minimal essential medium (MEM, Gibco, New York, NY, USA). All the above cell cultures were supplied with 10% fetal bovine serum and 1% penicillin-streptomycin. RWPE-1 cells were cultured in keratinocyte serum-free medium (K-SFM, Gibco, New York, NY, USA) supplemented with 50 mg/L bovine pituitary extract and 5 μg/L epidermal growth factor (EGF). All cell lines were grown in a humidified atmosphere of 5% CO2 at 37 °C.
(§4) Cells were seeded in 100 μL complete medium in a 96-well plate, at a density of 10,000 cells/well for LNCaP and 5000 cells/well for other cells. Cells were pre-incubated for 24 h to allow for adherence before removal of complete medium and treatment with various concentrations of compounds in fetal bovine serum (FBS)-free medium for 48 h. After treatment, 20 μL/well MTT (5 mg/mL) was added and incubated for 3–4 h at 37 °C, and then 100 μL/well DMSO was added for MTT assay. The plate was shaken on an orbital shaker for 10 min. Absorbance was measured using a microplate reader at 492 nm for the MTT assay (performed in triplicates). Cell viability was normalized to control. Half inhibitory concentration (IC50) was calculated by SPSS Statistics 17.0. The combination index (CI) isobologram equation was used for the quantitative determination of the interaction between two compounds [62]:(1) Combination index CI =CA,x/ICx,A+CB,x/ICx,B where CA,x and CB,x are compound concentrations that […], and ICx,A and ICx,B are compound concentrations that provide the same effect when being used in combination. The experiments were independently repeated two to three times.

[5] = tested on: PC-3 cells; assay: MTT cell proliferation assay, PC-3; format: cell-based, human; conditions: read-out: IC50 Value (Mean ± SD mM) PC-3
Experimental: as §1, §2

[6] = tested on: RWPE-1 cells; assay: MTT cell proliferation assay, RWPE-1; format: cell-based; conditions: for IC50: MTT, 48 h treatment in FBS-free medium, read-out: IC50 Value (Mean ± SD mM) RWPE-1
Experimental: as §1, §2

[7] = tested on: HepG2 cells; assay: MTT cell proliferation assay, HepG2; format: cell-based; conditions: read-out: IC50 Value (Mean ± SD mM) HepG2
Experimental: as §1, §2

[8] = tested on: A549 cells; assay: MTT cell proliferation assay, A549; format: cell-based; conditions: read-out: IC50 Value (Mean ± SD mM) A549
Experimental: as §1, §2

[9] = tested on: ovarian cancer; set-up: method as in PMID 27121207; conditions: intraperitoneal injections of 10 mg/kg; cited from earlier work
[10] = tested on: human castration-resistant PCa cells DU145 and PC3; set-up: method as in PMID 33945018; conditions: cited from earlier work
[11] = tested on: PC-3 and LNCaP cells; assay: MTT cell proliferation assay, PCa cell lines; format: cell-based; conditions: Homo sapiens, read-out: IC50 values on PCa cell lines
Experimental: as §3, §4

[12] = tested on: A549, HepG2, and PANC-1 cells; assay: MTT cell proliferation assay, other three cancer cell lines; format: cell-based; conditions: A549, HepG2, and PANC-1, text summary
Experimental: as §1, §2

[13] = Homo sapiens, PANC-1, 48 h treatment in FBS-free medium
[14] = all cell lines tested, read-out: IC50 values for all six cell lines tested
[15] = Homo sapiens, PC-3, 48 h treatment in FBS-free medium
[16] = Homo sapiens, HepG2, 48 h treatment in FBS-free medium
[17] = Homo sapiens, A549, 48 h treatment in FBS-free medium
[18] = 48 h treatment in FBS-free medium
[19] = discussion summary, all cancer cell lines tested, read-out: IC50 values in all cancer cell lines tested

SMILES | IC50 ([1]; Homo sapiens, LNCaP) | IC50 [2, 13] | IC50 [4, 14] | IC50 [5, 15] | IC50 ([6]; Homo sapiens, RWPE-1) | IC50 [7, 16] | IC50 [8, 17] | other results
Nc1c(O)cccc1C(=O)O [3-HAA, 3-hydroxyanthranilic acid] | 0.65 ± 0.06 mM | 0.41 ± 0.01 mM | ≤ 900 µM | 0.9 ± 0.04 mM | 0.38 ± 0.01 mM | 0.42 ± 0.02 mM | 0.27 ± 0.01 mM | tumor size ([3]; intraperitoneal administration): No difference in tumor size; tumor size ([3]; intratumoral administration): No difference in tumor size; Effect on proliferation of RWPE-1 cells ([6]; concentrations between 0.03 and 0.1 mM): promoted the proliferation
Nc1c(O)cccc1C(=O)CC(N)C(=O)O (centres unmarked) [3-HK, 3-hydroxykynurenine] | – | – | ≤ 900 µM | – | – | – | – | IC50 [1]: 0.29 ± 0.01 mM; IC50 [2, 18]: 0.25 ± 0.01 mM; IC50 [5, 18]: 0.55 ± 0.01 mM; IC50 [6]: 0.36 ± 0.01 mM; IC50 [7, 18]: 0.25 ± 0.01 mM; IC50 [8, 18]: 0.29 ± 0.01 mM
NCCc1c[nH]c2ccc(O)cc12 [5-HT, 5-hydroxytryptamine] | 1.12 ± 0.04 mM | 1.34 ± 0.13 mM | ≥ 1000 µM | 1.07 ± 0.03 mM | 1.66 ± 0.01 mM | 1.05 ± 0.17 mM | 1.89 ± 0.09 mM | tumor weight increase [9]: ~60%
N[C@@H](Cc1c[nH]c2ccc(O)cc12)C(=O)O [5-HTP, 5-hydroxytryptophan] | 1.8 ± 0.17 mM | – | – | 0.99 ± 0.04 mM | 0.85 ± 0.05 mM | – | – | –
Nc1c(C(=O)O)c2nc3c(C(=O)O)cccc3oc-2cc1=O [CA, cinnabarinic acid] | 0.24 ± 0.01 mM | 0.25 ± 0.04 mM | ≤ 900 µM | 0.17 ± 0.01 mM | 0.4 ± 0.01 mM | 0.1 ± 0.01 mM | 0.21 ± 0.01 mM | –
COc1cc([C@@H]2c3cc4c(cc3[C@@H](O[C@@H]3O[C@@H]5CO[C@@H](C)O[C@H]5[C@H](O)[C@H]3O)[C@H]3COC(=O)[C@H]23)OCO4)cc(OC)c1O [Etoposide, reference compound] | 0.032 ± 0.001 mM | 0.042 ± 0.001 mM | – | 0.064 ± 0.001 mM | 0.016 ± 0.001 mM | 0.03 ± 0.001 mM | 0.041 ± 0.002 mM | –
c1ccc2[nH]ccc2c1 [Indole] | 0.98 ± 0.02 mM | – | – | 0.7 ± 0.02 mM | 0.9 ± 0.06 mM | – | – | –
O=C(O)c1cc(=O)c2ccccc2[nH]1 [KYNA, kynurenic acid] | 9.74 ± 1.3 mM | – | – | 8.76 ± 1.18 mM | 4.39 ± 0.1 mM | – | – | effect on DU145 and PC3 cells [10]: scarce or no effect; IC50 ([11]; PC-3 and LNCaP): > 5000 µM; IC50 [4, 19]: > 3000 µM
Nc1ccccc1C(=O)CC(N)C(=O)O (centres unmarked) [Kynurenine, kynurenine] | 1.78 ± 0.18 mM | 2.63 ± 0.04 mM | ≥ 1000 µM | 2.02 ± 0.05 mM | 2.79 ± 0.05 mM | 1.93 ± 0.03 mM | 2.46 ± 0.05 mM | –
COc1ccc2[nH]cc(CCNC(C)=O)c2c1 [Melatonin] | 1.25 ± 0.12 mM | 2.02 ± 0.09 mM | ≥ 1000 µM | 1.28 ± 0.06 mM | 1.47 ± 0.1 mM | 1.48 ± 0.1 mM | 2.31 ± 0.06 mM | –
O=C(O)c1ccccn1 [Picolinic acid] | 5.75 mM | – | – | 4.95 ± 0.19 mM | 1.48 ± 0.06 mM | – | – | –
O=C(O)c1cccnc1C(=O)O [QA, quinolinic acid] | 6.83 ± 0.42 mM | – | – | 6 ± 1.32 mM | 3.2 ± 0.16 mM | – | – | IC50 ([11]; PC-3 and LNCaP): > 5000 µM; IC50 [4, 19]: > 3000 µM
N[C@@H](Cc1c[nH]c2ccccc12)C(=O)O [Tryptophan] | 6.51 ± 0.29 mM | 4.54 ± 0.19 mM | – | 1.89 ± 0.13 mM | 0.76 ± 0.03 mM | 1.54 ± 0.04 mM | 1.5 ± 0.15 mM | IC50 ([11]; LNCaP): 1900 to 6500 µM; IC50 [12]: 1500 to 4500 µM
NCCc1ccc(O)cc1 [Tyramine, reference compound] | 1.71 ± 0.12 mM | 0.77 ± 0.04 mM | – | 1.53 ± 0.04 mM | 2.99 ± 0.08 mM | 1.53 ± 0.05 mM | 3.18 ± 0.24 mM | –
NCCc1ccccc1 [β-phenylethylamine, reference compound] | – | – | – | – | – | – | – | IC50 [1]: 0.69 ± 0.06 mM; IC50 [2, 18]: 1.47 ± 0.07 mM; IC50 [5, 18]: 0.44 ± 0.01 mM; IC50 [6]: 2.51 ± 0.19 mM; IC50 [7, 18]: 1.01 ± 0.03 mM; IC50 [8, 18]: 0.72 ± 0.06 mM
